Like-named read-outs stand apart in the source and are kept apart here.
How the values were obtained:
HIV-1 integrase = HIV-1 integrase (Human immunodeficiency virus type 1 group M subtype B, UniProt P03366); experiment: HIV-1 integrase inhibitor binding assay
HIV-1 NL4-3 [1] = experiment: Time-of-addition study, NL4-3-infected B6 cells; assay type: cell-based; conditions: single cycle, 24 h postinfection
HIV-1 Gag (WT LAI VLPs) = HIV-1 Gag (WT LAI VLPs) (Human immunodeficiency virus type 1 group M subtype B, UniProt P03348); experiment: [3H]BMS-955176-Gag binding (SPA)
[2] = system: HIV-1 NL4-3 ΔV370 variant (NLRepRlucP373S/Δ370); assay type: cell-based
HIV-1 RF = experiment: Multiple-cycle assay, laboratory strains; assay type: cell-based; conditions: Human immunodeficiency virus 1
HIV-1 IIIB = experiment: Multiple-cycle assay, laboratory strains; assay type: cell-based; conditions: Human immunodeficiency virus 1, CXCR4, MT-2
HIV-1 gp160 = target: T1, HIV-1 gp160 (Human immunodeficiency virus type 1 group M subtype B, UniProt P04578); experiment: HIV-1 cell fusion assay; assay type: cell-based
T1 construct: expressed in transfected cells; host or cells: NL-TOE donor cells (target cells: HeLa C14)

[3] = system: subtype C gag/pr recombinant viruses; experiment: Multiple-cycle Gag/Pr phenotyping assay; assay type: cell-based, HIV-1
[4] = initial / phase 2a clinical studies; cited from earlier work
HIV-1 HXB2 = experiment: Multiple-cycle assay, laboratory strains; assay type: cell-based; conditions: Human immunodeficiency virus 1; HXB2, CXCR4, MT-2
in vitro = conditions: dog
[5] = system: subtype B gag/pr recombinant viruses; experiment: Multiple-cycle Gag/Pr phenotyping assay; assay type: cell-based, HIV-1
[6] = target: WT HIV-1 VLPs, p25 to p24 (CA/SP1) cleavage (Human immunodeficiency virus type 1 group M subtype B, UniProt P03348); experiment: HIV-1 VLP protease cleavage assay; assay type: biochemical; conditions: Western blot
[7] = system: HIV-1 subtype D clinical isolates; experiment: Drug susceptibility assay using clinical isolates in PBMCs; conditions: Human immunodeficiency virus 1, PBMC
HIV-2 CBL-23 = experiment: Multiple-cycle assay, laboratory strains; assay type: cell-based; conditions: HIV-2 CBL-23, MT-2
HIV-1 NL4-3 [8] = experiment: Multiple-cycle assay, laboratory strains; assay type: cell-based; conditions: Human immunodeficiency virus 1, NL43; NL4-3, CXCR4, MT-2
HIV-1 protease = HIV-1 protease (Human immunodeficiency virus type 1 group M subtype B, UniProt P03366); experiment: HIV-1 protease assay; assay type: biochemical
[9] = system: HIV-LAI envelope-pseudotyped RepRlucP373SΔenv virus; experiment: Two-stage single-cycle pseudotype assay (HIV-1 entry assay); assay type: cell-based
[10] = Serum binding assay (ultracentrifugation)
[11] = system: HIV-1 subtype C clinical isolates; experiment: Drug susceptibility assay using clinical isolates in PBMCs
HIV-1 LAI = experiment: Multiple-cycle assay, laboratory strains; assay type: cell-based; conditions: Human immunodeficiency virus 1
[12] = system: HIV-1 group O clinical isolates; experiment: Drug susceptibility assay using clinical isolates in PBMCs; conditions: Human immunodeficiency virus 1, PBMC
[13] = human, serum
HIV-1 JRFL = experiment: Multiple-cycle assay, laboratory strains; assay type: cell-based; conditions: Human immunodeficiency virus 1, CCR5, PM1
[14] = system: viruses from subtypes A, C, D, F, and G; experiment: Drug susceptibility assay using clinical isolates in PBMCs; conditions: Human immunodeficiency virus 1, PBMC, read-out: EC50s (range)
[15] = system: HIV-1 group N clinical isolate; experiment: as above; conditions: Human immunodeficiency virus 1, PBMC
HIV-1 Bal = experiment: Multiple-cycle assay, laboratory strains; assay type: cell-based; conditions: Human immunodeficiency virus 1, CCR5, PM1
[16] = system: MJ4, a subtype C molecular clone; experiment: RT activity in PBMCs; conditions: Human immunodeficiency virus 1, PBMC

## C=C(C)[C@@H]1CC[C@]2(NCCN3CCS(=O)(=O)CC3)CC[C@]3(C)[C@H](CC[C@@H]4[C@@]5(C)CC=C(c6ccc(C(=O)O)cc6)C(C)(C)[C@@H]5CC[C@]43C)[C@@H]12 [BMS-955176]
HIV-1 integrase
  IC50: > 15000 nM
HIV-1 NL4-3 [1]
  effect on luciferase signal by time of addition: did not inhibit luciferase expression when added any time during infection
HIV-1 Gag (WT LAI VLPs)
  Ki: 5.6 nM
HIV-1 Gag (WT LAI VLPs); Kd values, range of 5 experiments
  Kd: 2.3 to 6 nM
HIV-1 Gag (WT LAI VLPs); Kd, saturation binding of [3H]BMS-955176 to LAI VLPs
  Kd: 5.5 nM
[2]; Human immunodeficiency virus 1, NL43, MT2
  EC50: 13 nM
[2]; Human immunodeficiency virus 1, NL43, MT2, read-out: EC50 (SD)
  EC50: 13 nM
HIV-1 RF
  EC50: 7.7 ± 1.4 nM
HIV-1 IIIB
  EC50: 2.8 ± 0.3 nM
HIV-1 gp160
  EC50: > 2000 nM
[3]; Human immunodeficiency virus 1, read-out: EC50 range
  EC50: 2.1 to 45 nM
[3]; Human immunodeficiency virus 1, read-out: mean EC50
  EC50: 10.9 ± 9.1 nM
[3]; Human immunodeficiency virus 1, read-out: median EC50
  EC50: 8.8 nM
[4]
  clinical safety and tolerability: safe and well tolerated
HIV-1 HXB2
  EC50: 11 ± 2 nM
In vitro
  CC50: 3900 nM
[5]; Human immunodeficiency virus 1, read-out: EC50 (mean), full library, None (WT), n=51
  EC50: 3 nM
[5]; Human immunodeficiency virus 1, read-out: EC50 (mean), full library, T371A/Q/N/S/TT, n=6
  EC50: 4 nM
[5]; Human immunodeficiency virus 1, read-out: EC50 (mean), full library, V362I, n=5
  EC50: 5.3 nM
[5]; Human immunodeficiency virus 1, read-out: EC50 (mean), full library, V370A + ΔT371, n=4
  EC50: 12 nM
[5]; Human immunodeficiency virus 1, read-out: EC50 (mean), full library, V370A, n=7
  EC50: 2 nM
[5]; Human immunodeficiency virus 1, read-out: EC50 (mean), full library, V370I/L/T, n=4
  EC50: 3 nM
[5]; Human immunodeficiency virus 1, read-out: EC50 (mean), full library, V370 M, n=9
  EC50: 7 nM
[5]; Human immunodeficiency virus 1, read-out: EC50 range, V362I-containing viruses, n=5
  EC50: 2 to 9.4 nM
[5]; Human immunodeficiency virus 1, read-out: EC50 range, all subtype B, n=87
  EC50: 0.7 to 22 nM
[5]; Human immunodeficiency virus 1, read-out: mean EC50, all subtype B, n=87
  EC50: 3.9 ± 3.4 nM
[5]; Human immunodeficiency virus 1, read-out: median EC50, V362I-containing viruses, n=5
  EC50: 5.7 nM
[5]; Human immunodeficiency virus 1, read-out: median EC50, WT subtype B (n=51)
  EC50: 2.5 nM
[5]; Human immunodeficiency virus 1, read-out: median EC50, all subtype B, n=87
  EC50: 2.8 nM
[5]; read-out: EC50 (mean), full library, V362I, n=5
  EC50: 5 nM
[6]
  inhibition of conversion of VLP p25 to p24: inhibited the conversion of HIV-1 WT VLP p25 to p24 in a dose-dependent manner
[7]; read-out: Median EC50
  EC50: 6 nM
[7]; read-out: Range EC50
  EC50: 1 to 21 nM
HIV-2 CBL-23
  EC50: completely resistant
HIV-2 CBL-23; Human immunodeficiency virus 2, read-out: EC50
  EC50: > 1200 nM
HIV-1 NL4-3 [8]
  EC50: 4.7 ± 2.3 nM
HIV-1 protease
  IC50: > 10000 nM
[9]
  inhibition of luciferase, compound added at stage 1 (virus production): inhibiting luciferase production only when added in the first stage
  inhibition of luciferase, compound added at stage 2 (infection): inhibiting luciferase production only when added in the first stage
[10]; 100% human serum, ultracentrifugation method
  human serum binding: 86%
[10]; human, serum
  fraction unbound at 1 h, 0.052 µM: 0.14
[11]; Human immunodeficiency virus 1, PBMC, PBMCs, one insensitive subtype C isolate
  EC50: 1400 nM
[11]; Human immunodeficiency virus 1, PBMC, read-out: Mean EC50 ± SD, PBMCs, C, 13 of 14 isolates
  EC50: 17 ± 11 nM
[11]; Human immunodeficiency virus 1, PBMC, read-out: Mean EC50 ± SD, PBMCs, C, 14 isolates
  EC50: 116 nM
[11]; Human immunodeficiency virus 1, PBMC, read-out: Median EC50, PBMCs, C, 13 of 14 isolates
  EC50: 14 nM
[11]; Human immunodeficiency virus 1, PBMC, read-out: Median EC50, PBMCs, C, 14 isolates
  EC50: 14 nM
[11]; Human immunodeficiency virus 1, PBMC, read-out: Range EC50, PBMCs, C, 13 of 14 isolates
  EC50: 1 to 45 nM
[11]; Human immunodeficiency virus 1, PBMC, read-out: median EC50 values, Fig 7, PBMCs, C (Group M)
  EC50: 15000 nM
[11]; read-out: Range EC50, PBMCs, C, 14 isolates
  EC50: 1 to 1400 nM
HIV-1 LAI
  EC50: 2.6 ± 0.3 nM
[12]; read-out: Mean EC50 ± SD, PBMCs, group O, 5 isolates
  EC50: 170 ± 240 nM
[12]; read-out: Median EC50, PBMCs, group O, 5 isolates
  EC50: 30 nM
[12]; read-out: Range EC50, PBMCs, group O, 5 isolates
  EC50: 1 to 552 nM
[13]
  fraction unbound: 0.18
HIV-1 JRFL
  EC50: 2.5 ± 0.8 nM
[14]
  EC50: 5.9 to 87 nM
[15]; read-out: Mean EC50
  EC50: 7.2 nM
[15]; read-out: Median EC50
  EC50: 7 nM
[15]; read-out: Range EC50
  EC50: 7 nM
HIV-1 Bal
  EC50: 0.7 ± 0.2 nM
[16]
  EC50: 3 nM
